In the experiment the test system is Pseudomonas aeruginosa PAM1001. In words: Checkerboard assay (broth microdilution): levofloxacin MIC in presence of efflux pump inhibitor. In kind it is cell-based. The procedure:
Potentiation effect is observed by the reduction of the minimum inhibitory concentration of levofloxacin in the presence of the experimental efflux pump inhibitor. The activity of efflux pump inhibitors (EPI) in combination with fluoroquinolones, such as levofloxacin, is assessed by the checkerboard assay (Antimicrobial Combinations. In Antibiotics in Laboratory Medicine, Ed. Victor Lorian, M.D., Fourth edition, 1996, pp 333-338) using broth microdilution method performed as recommended by the NCCLS (National Committee for Clinical Laboratory Standards (NCCLS). 1997. Methods for Dilution of Antimicrobial Susceptibility Tests for Bacteria That Grow Aerobically—Fourth Edition; Approved Standard. NCCLS Document M7-A4, Vol 17 No.2). The test organism used is Pseudomonas aeruginosa PAM1001. […] The compounds tabulated below are representative of the described invention.
In this assay, multiple dilutions of two drugs, namely the EPI and levofloxacin, are being tested, alone and in combination, at concentrations equal to, above and below their respective minimal inhibitory concentrations (MICs). In the case of EPI, most of these compounds are devoid of intrinsic antimicrobial activity and are tested at the maximum concentration of 40 μg/mL. The MIC of levofloxacin against P. aeruginosa PAM1001 is 4 μg/mL.
The EPI tested are readily soluble in water and stock solutions are prepared at a final concentration of 2 mg/mL. Stock solutions are further diluted, according to the needs of a particular assay, in Mueller Hinton Broth (MHB). Stock solution can be stored at −80° C. Quinolones are solubilized according to the instructions of the manufacturers, at a concentration of 1 mg/mL. They are then further diluted in MB. Stock solution can be stored at −80° C.
The checkerboard assay is performed in microtiter plates. Levofloxacin is diluted in the x axis, each column containing a single concentration of levofloxacin. The EPI is diluted in the y axis, each row containing an equal concentration of EPI. The result of these manipulations is that each well of the microtiter plate contains a unique combination of concentrations of the two agents. Each EPI are tested independently.
The assay is performed in MHB with a final bacterial inoculum of 5×10^5 CFU/mL (from an early-log phase culture). Microtiter plates are incubated during 20 h at 35° C. and are read using a microtiterplate reader (Molecular Devices) at 650 nm as well as visual observation using a microtiter plate reading mirror.
(Dilution methods test growth across graded concentrations, often in twofold steps.)

2 compounds from patent US6436980B1, “Peptidomimetic efflux pump inhibitors” (priority 1998, dated 2002) can be followed below.

Structures are written as SMILES.

On to `NCCC[C@@H](N)C(=O)N[C@H](CCc1ccccc1)C(O)c1nc2ncccc2o1.O=C(O)C(F)(F)F` (mixture of isomers) [Compound 36, (2R)-2,5-Diamino-N-[(1R)-1-[(RS)-(1-oxazolo[4,5-b]pyridin-2-yl)-hydroxymethyl]-3-phenylpropyl]valeramide Trifluoroacetate], for which the “Levofloxacin MIC Against P. aeruginosa PAM1001 in Presence of Efflux Pump Inhibitor (EPI), Minimum Inhibitory Concentration” value runs as follows: (EPI Conc. 0 μg/mL (levofloxacin alone)) 4 µg/mL; (EPI Conc. 0.625 μg/mL) 4 µg/mL; (EPI Conc. 1.25 μg/mL) 4 µg/mL; (EPI Conc. 2.5 μg/mL) 4 µg/mL; (EPI Conc. 5 μg/mL) 4 µg/mL; (EPI Conc. 10 μg/mL) 4 µg/mL. For the same compound, the “Levofloxacin MIC Against P. aeruginosa PAM1001 in Presence of Efflux Pump Inhibitor (EPI), Minimum Inhibitory Concentration” value (EPI Conc. 20 μg/mL) was 2 µg/mL and the “Levofloxacin MIC Against P. aeruginosa PAM1001 in Presence of Efflux Pump Inhibitor (EPI), Minimum Inhibitory Concentration” value (EPI Conc. 40 μg/mL) was found to be 2 µg/mL.
Turning to `C[C@H]1COc2c(N3CCN(C)CC3)c(F)cc3c(=O)c(C(=O)O)cn1c23` [levofloxacin, reference compound], for the setting “Pseudomonas aeruginosa, PAM1001, read-out: MIC of levofloxacin against P. aeruginosa PAM1001”, the minimum inhibitory concentration (MIC) was found to be 4 µg/mL.

The MIC is the lowest concentration found to suppress growth.
